Experimental data taken from ChEMBL document CHEMBL4507269, “Data for DCP probe BAY-386” (2021).

How the values were obtained:
[1] = target: Myosin-IIIa (Homo sapiens) (UniProt Q8NEV4); conditions: Compound concentration 1000.0 nM
[2] = target: Mitogen-activated protein kinase kinase kinase kinase 1 (Homo sapiens) (UniProt Q92918); conditions: Compound concentration 1000.0 nM
[3] = target: Phosphatidylinositol 4,5-bisphosphate 3-kinase catalytic subunit alpha isoform (Homo sapiens) (UniProt P42336); conditions: Compound concentration 1000.0 nM
[4] = target: Receptor-interacting serine/threonine-protein kinase 2 (Homo sapiens) (UniProt O43353); conditions: Compound concentration 1000.0 nM
[5] = target: Glycogen synthase kinase-3 alpha (Homo sapiens) (UniProt P49840); conditions: Compound concentration 1000.0 nM
Glycogen synthase kinase-3 alpha (Homo sapiens), sequence (P49840 2-483 limits assumed): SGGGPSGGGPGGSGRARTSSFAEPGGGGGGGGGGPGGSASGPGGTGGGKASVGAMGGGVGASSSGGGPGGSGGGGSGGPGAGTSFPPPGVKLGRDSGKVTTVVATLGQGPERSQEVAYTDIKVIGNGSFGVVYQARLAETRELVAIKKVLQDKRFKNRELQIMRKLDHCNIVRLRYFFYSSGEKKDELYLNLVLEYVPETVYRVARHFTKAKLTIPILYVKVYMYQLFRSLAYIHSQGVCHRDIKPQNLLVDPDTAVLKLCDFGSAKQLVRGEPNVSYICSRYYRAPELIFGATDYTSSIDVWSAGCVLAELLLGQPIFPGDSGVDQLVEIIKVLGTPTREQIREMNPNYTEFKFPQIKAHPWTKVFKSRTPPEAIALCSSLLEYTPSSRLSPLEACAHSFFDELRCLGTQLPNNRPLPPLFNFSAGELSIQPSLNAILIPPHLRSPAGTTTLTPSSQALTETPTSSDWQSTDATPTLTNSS

[6] = target: Serine/threonine-protein kinase VRK2 (Homo sapiens) (UniProt Q86Y07); conditions: Compound concentration 1000.0 nM
Serine/threonine-protein kinase VRK2 (Homo sapiens), sequence (Q86Y07 whole entry): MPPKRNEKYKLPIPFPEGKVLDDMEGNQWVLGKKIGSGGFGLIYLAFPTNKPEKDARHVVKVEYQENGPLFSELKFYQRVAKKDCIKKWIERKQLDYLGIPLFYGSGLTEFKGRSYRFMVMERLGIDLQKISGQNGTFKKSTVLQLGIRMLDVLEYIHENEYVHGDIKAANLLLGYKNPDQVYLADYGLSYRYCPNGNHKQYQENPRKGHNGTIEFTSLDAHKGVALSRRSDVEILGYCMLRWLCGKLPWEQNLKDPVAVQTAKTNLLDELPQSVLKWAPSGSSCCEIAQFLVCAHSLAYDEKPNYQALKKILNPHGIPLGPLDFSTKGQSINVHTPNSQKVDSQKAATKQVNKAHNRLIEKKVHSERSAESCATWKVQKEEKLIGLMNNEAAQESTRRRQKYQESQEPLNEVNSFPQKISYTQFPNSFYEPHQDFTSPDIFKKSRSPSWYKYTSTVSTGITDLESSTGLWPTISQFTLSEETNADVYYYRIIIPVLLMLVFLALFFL

[7] = target: Rhodopsin kinase GRK7 (Homo sapiens) (UniProt Q8WTQ7); conditions: Compound concentration 1000.0 nM
[8] = target: Serine/threonine-protein kinase MAK (Homo sapiens) (UniProt P20794); conditions: Compound concentration 1000.0 nM
Serine/threonine-protein kinase MAK (Homo sapiens), sequence (P20794 whole entry): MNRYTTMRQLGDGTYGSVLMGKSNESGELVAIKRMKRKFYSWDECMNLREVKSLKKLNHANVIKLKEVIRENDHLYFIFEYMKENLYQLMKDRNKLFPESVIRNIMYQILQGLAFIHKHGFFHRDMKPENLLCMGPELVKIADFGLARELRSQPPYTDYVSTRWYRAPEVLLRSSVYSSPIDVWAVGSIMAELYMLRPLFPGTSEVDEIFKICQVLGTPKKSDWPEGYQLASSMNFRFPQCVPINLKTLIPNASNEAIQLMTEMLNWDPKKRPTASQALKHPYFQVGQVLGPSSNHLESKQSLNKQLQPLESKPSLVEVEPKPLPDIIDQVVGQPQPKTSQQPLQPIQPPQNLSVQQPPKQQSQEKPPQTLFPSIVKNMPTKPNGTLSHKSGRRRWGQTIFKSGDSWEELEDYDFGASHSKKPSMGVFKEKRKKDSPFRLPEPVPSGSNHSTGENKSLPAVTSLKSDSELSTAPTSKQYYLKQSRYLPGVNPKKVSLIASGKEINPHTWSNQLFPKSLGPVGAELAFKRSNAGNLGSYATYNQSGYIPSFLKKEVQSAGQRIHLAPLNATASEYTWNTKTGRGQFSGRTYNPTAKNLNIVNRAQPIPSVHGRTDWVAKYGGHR

[9] = target: Serine/threonine-protein kinase SIK2 (Homo sapiens) (UniProt Q9H0K1); conditions: Compound concentration 1000.0 nM
[10] = target: Mitogen-activated protein kinase 11 (Homo sapiens) (UniProt Q15759); conditions: Compound concentration 1000.0 nM
[11] = target: Tyrosine-protein kinase Blk (Homo sapiens) (UniProt P51451); conditions: Compound concentration 1000.0 nM
[12] = target: Macrophage-stimulating protein receptor (Homo sapiens) (UniProt Q04912); conditions: Compound concentration 1000.0 nM
[13] = target: Dual specificity testis-specific protein kinase 1 (Homo sapiens) (UniProt Q15569); conditions: Compound concentration 1000.0 nM
[14] = target: Tyrosine-protein kinase TXK (Homo sapiens) (UniProt P42681); conditions: Compound concentration 1000.0 nM
[15] = target: Ribosomal protein S6 kinase alpha-2 (Homo sapiens) (UniProt Q15349); conditions: Compound concentration 1000.0 nM
[16] = target: G protein-coupled receptor kinase 4 (Homo sapiens) (UniProt P32298); conditions: Compound concentration 1000.0 nM
[17] = target: Serine/threonine-protein kinase MRCK alpha (Homo sapiens) (UniProt Q5VT25); conditions: Compound concentration 1000.0 nM
[18] = target: SNF-related serine/threonine-protein kinase (Homo sapiens) (UniProt Q9NRH2); conditions: Compound concentration 1000.0 nM
SNF-related serine/threonine-protein kinase (Homo sapiens), sequence (Q9NRH2 whole entry): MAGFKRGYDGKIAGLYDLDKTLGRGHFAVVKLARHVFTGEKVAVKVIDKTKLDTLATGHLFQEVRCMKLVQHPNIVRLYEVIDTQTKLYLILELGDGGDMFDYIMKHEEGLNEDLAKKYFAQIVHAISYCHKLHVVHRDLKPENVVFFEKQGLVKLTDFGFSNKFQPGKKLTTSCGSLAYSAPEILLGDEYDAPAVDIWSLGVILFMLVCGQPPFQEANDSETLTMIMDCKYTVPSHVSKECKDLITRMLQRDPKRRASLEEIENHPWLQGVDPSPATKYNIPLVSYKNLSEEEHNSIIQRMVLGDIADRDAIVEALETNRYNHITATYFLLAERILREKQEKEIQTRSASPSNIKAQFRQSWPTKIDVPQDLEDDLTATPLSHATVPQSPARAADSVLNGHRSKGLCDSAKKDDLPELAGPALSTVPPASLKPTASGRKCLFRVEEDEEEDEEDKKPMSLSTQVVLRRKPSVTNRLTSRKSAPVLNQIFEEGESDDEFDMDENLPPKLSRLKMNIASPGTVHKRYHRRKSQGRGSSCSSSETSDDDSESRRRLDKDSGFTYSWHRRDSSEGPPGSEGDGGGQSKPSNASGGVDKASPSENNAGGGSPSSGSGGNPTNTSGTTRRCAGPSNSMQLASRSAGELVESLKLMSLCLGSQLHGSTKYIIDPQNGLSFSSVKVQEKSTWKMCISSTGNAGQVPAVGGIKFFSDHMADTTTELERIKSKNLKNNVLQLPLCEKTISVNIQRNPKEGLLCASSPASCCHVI

[19] = target: Epidermal growth factor receptor (Homo sapiens) (UniProt P00533); conditions: Compound concentration 1000.0 nM
Epidermal growth factor receptor (Homo sapiens), sequence (P00533 whole entry): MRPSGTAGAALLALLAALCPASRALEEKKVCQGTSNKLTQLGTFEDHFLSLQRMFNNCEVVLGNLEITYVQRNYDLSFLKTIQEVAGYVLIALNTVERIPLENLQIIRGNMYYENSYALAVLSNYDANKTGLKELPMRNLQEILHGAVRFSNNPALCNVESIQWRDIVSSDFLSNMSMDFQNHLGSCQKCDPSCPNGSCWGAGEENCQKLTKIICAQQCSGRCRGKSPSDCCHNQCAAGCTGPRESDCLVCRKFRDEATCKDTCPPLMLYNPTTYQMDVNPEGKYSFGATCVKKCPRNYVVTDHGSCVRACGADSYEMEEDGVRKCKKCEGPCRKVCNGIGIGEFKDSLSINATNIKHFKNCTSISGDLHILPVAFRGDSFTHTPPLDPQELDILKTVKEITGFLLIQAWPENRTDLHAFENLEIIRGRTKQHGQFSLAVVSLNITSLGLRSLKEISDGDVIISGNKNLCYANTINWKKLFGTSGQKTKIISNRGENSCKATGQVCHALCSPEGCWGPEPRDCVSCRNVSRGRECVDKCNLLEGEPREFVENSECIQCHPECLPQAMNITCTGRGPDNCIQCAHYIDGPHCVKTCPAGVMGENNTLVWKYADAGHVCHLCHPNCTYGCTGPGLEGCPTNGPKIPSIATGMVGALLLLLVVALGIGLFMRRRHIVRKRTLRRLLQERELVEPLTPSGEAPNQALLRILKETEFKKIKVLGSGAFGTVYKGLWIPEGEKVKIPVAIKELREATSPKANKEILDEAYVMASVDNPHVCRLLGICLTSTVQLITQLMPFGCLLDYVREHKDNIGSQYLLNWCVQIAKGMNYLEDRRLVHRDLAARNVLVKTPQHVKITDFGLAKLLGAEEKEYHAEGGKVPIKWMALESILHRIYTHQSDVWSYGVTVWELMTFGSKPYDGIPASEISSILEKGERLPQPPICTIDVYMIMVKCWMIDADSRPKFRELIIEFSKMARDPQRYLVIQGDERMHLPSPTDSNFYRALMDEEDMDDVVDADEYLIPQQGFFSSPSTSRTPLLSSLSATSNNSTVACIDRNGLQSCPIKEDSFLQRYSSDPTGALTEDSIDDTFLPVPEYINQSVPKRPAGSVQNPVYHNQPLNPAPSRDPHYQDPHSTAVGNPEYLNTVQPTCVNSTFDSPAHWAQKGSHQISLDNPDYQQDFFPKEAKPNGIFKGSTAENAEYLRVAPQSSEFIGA

[20] = target: Sodium-dependent serotonin transporter (Homo sapiens) (UniProt P31645); conditions: Compound concentration 10.0 uM
[21] = system: Serine/threonine-protein kinase B-raf (Homo sapiens), P15056 [V600E]; conditions: Compound concentration 1000.0 nM
[22] = target: Serine/threonine-protein kinase 10 (Homo sapiens) (UniProt O94804); conditions: Compound concentration 1000.0 nM
Serine/threonine-protein kinase 10 (Homo sapiens), sequence (O94804 whole entry, looked up): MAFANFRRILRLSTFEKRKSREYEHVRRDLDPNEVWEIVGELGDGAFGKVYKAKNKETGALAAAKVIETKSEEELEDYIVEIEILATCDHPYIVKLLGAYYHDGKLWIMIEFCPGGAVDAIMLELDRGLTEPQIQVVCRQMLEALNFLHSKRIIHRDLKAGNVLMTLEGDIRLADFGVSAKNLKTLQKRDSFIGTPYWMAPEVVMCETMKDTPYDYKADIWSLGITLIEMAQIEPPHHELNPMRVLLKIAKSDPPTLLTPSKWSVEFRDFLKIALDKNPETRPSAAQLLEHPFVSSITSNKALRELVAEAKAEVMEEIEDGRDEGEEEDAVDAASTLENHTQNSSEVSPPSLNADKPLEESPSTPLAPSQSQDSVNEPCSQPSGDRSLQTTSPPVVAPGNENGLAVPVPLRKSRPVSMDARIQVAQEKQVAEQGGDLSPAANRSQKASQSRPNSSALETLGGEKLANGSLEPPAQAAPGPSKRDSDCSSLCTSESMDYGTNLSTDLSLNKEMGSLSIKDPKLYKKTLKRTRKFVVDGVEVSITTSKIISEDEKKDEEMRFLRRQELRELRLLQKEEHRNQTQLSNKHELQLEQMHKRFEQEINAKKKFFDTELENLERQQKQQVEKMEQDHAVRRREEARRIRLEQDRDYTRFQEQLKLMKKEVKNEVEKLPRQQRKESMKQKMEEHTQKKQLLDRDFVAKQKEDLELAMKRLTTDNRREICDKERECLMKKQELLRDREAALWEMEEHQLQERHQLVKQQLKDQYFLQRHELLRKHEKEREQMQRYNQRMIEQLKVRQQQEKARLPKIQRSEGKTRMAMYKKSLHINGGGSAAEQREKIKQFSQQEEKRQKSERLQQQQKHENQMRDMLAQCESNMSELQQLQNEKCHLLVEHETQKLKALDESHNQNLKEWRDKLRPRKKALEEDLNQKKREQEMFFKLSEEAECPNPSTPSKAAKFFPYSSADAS

[23] = target: Mitogen-activated protein kinase kinase kinase 2 (Homo sapiens) (UniProt Q9Y2U5); conditions: Compound concentration 1000.0 nM
[24] = target: Cyclin-dependent kinase 19 (Homo sapiens) (UniProt Q9BWU1); conditions: Compound concentration 1000.0 nM
Cyclin-dependent kinase 19 (Homo sapiens), sequence (Q9BWU1 whole entry): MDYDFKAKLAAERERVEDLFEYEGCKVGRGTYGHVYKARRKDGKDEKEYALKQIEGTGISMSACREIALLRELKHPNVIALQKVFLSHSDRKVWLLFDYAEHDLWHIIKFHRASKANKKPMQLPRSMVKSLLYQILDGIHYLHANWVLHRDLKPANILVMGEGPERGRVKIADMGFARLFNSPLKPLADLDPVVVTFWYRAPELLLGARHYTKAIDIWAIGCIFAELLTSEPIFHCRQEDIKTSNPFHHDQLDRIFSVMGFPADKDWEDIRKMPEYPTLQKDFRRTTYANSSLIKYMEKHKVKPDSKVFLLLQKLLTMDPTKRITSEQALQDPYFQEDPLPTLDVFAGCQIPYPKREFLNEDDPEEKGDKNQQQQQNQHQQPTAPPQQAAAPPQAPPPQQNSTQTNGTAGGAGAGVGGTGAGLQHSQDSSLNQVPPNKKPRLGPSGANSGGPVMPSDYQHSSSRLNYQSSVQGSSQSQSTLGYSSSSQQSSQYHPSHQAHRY

[25] = target: Maternal embryonic leucine zipper kinase (Homo sapiens) (UniProt Q14680); conditions: Compound concentration 1000.0 nM
[26] = target: Vascular endothelial growth factor receptor 3 (Homo sapiens) (UniProt P35916); conditions: Compound concentration 1000.0 nM
[27] = system: Tyrosine-protein kinase ABL1 (Homo sapiens), P00519 [F317I]; conditions: Compound concentration 1000.0 nM
[28] = target: Serine/threonine-protein kinase D2 (Homo sapiens) (UniProt Q9BZL6); conditions: Compound concentration 1000.0 nM
[29] = target: T1, 5-hydroxytryptamine receptor 1A (Homo sapiens) (UniProt P08908); conditions: Compound concentration 10.0 uM
T1 sequence (whole entry): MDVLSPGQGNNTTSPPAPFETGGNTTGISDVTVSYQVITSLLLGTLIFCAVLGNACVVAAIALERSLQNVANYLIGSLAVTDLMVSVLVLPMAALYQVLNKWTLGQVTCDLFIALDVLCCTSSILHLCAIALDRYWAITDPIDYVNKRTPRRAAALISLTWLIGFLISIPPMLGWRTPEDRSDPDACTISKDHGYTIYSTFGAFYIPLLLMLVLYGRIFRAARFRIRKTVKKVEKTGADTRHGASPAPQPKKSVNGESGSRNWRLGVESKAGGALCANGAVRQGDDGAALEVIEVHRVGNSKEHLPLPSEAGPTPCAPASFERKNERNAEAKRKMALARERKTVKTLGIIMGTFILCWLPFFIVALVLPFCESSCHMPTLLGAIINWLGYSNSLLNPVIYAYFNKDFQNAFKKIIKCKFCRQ

[30] = target: Rho-associated protein kinase 2 (Homo sapiens) (UniProt O75116); conditions: Compound concentration 1000.0 nM
[31] = target: T2, D(4) dopamine receptor (Homo sapiens) (UniProt P21917); conditions: Compound concentration 10.0 uM
T2 sequence (whole entry): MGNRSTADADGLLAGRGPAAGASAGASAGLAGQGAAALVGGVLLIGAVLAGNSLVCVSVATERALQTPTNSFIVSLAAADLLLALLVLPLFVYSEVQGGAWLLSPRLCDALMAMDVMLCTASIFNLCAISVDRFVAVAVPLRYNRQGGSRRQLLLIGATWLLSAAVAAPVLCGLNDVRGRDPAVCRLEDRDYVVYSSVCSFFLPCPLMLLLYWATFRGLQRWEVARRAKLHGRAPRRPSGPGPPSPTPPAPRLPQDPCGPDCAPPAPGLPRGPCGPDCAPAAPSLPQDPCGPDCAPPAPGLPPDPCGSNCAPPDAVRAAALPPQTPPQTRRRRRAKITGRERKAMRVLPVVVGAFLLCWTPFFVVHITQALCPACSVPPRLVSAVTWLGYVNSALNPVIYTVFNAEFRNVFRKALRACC

[32] = target: Tyrosine-protein kinase JAK2 (Homo sapiens) (UniProt O60674); conditions: Compound concentration 1000.0 nM
[33] = system: Mast/stem cell growth factor receptor Kit (Homo sapiens), P10721 [V559D]; conditions: Compound concentration 1000.0 nM
[34] = target: 3-phosphoinositide-dependent protein kinase 1 (Homo sapiens) (UniProt O15530); conditions: Compound concentration 1000.0 nM

O=C(N1CCS(=O)(=O)CC1)N1C[C@H](c2ccc(OC(F)(F)F)cc2)C[C@H](c2nc(C3CC3)no2)C1 [BAY-386]
inactive: residual activity [1] 100% | residual activity [2] 100% | residual activity [3] 100% | residual activity [4] 90% | residual activity [5] 100% | residual activity [6] 90% | residual activity [7] 100% | residual activity [8] 100% | residual activity [9] 100% | residual activity [10] 100% | residual activity [11] 100% | residual activity [12] 100% | residual activity [13] 100% | residual activity [14] 100% | residual activity [15] 100% | residual activity [16] 100% | residual activity [17] 100% | residual activity [18] 93% | residual activity [19] 100% | inhibition [20] 8.68% | residual activity [21] 100% | residual activity [22] 100% | residual activity [23] 100% | residual activity [24] 100% | residual activity [25] 100% | residual activity [26] 100% | residual activity [27] 80% | residual activity [28] 100% | inhibition [29] 14.7% | residual activity [30] 98% | inhibition [31] 5.24% | residual activity [32] 75% | residual activity [33] 100% | residual activity [34] 94%

Cc1noc([C@H]2C[C@@H](c3ccc(C(F)(F)F)cc3)CN(C(=O)N3CCS(=O)(=O)C3)C2)n1 [BAY-448]
inactive: residual activity [1] 100% | residual activity [2] 100% | residual activity [3] 99% | residual activity [4] 100% | residual activity [5] 79% | residual activity [6] 91% | residual activity [7] 100% | residual activity [8] 100% | residual activity [9] 100% | residual activity [10] 100% | residual activity [11] 100% | residual activity [12] 100% | residual activity [13] 91% | residual activity [14] 92% | residual activity [15] 100% | residual activity [16] 99% | residual activity [17] 100% | residual activity [18] 100% | residual activity [19] 100% | inhibition [20] 5.57% | residual activity [21] 89% | residual activity [22] 100% | residual activity [23] 99% | residual activity [24] 100% | residual activity [25] 100% | residual activity [26] 100% | residual activity [27] 100% | residual activity [28] 100% | inhibition [29] -4.52% | residual activity [30] 100% | inhibition [31] 6.3% | residual activity [32] 100% | residual activity [33] 100% | residual activity [34] 95%
